# From ChEMBL document CHEMBL5724696, “Autophagy assay results for EUbOPEN Chemogenomics Library” (2024)
# “And” between values parts separate entries of the source, which are not always exact repeats. Equal entries are not always repeated.
# Key:
# Type in all cases: functional, Homo sapiens
# [1] = system: U2OS; assay: (§1) Here: values are normalized to the positive (DMSO; basel flux = defined as 100% suppression) and negative (250nM Torin1; mTOR inhibitor; maximal inducer of autophagy defined as 0% suppression) control compounds and represented as % of ER-phagy suppression. […] The impact of autophagy induction on cells is complex and depends on the affected target. […] Of note, treatment concentrations may be sub-optimal for specific compounds, leading to false negative annotations.; details: Compound Concentration 1 uM, Culturing Media DMEM, 1 % Penicillin/Streptomycin, 10% Fetal bovin serum Add-On: blasticidin, Screening Media Control DMEM, 10% Fetal bovin serum Add-On: 1 µg/ml Doxycyclin, Screening Media Samples DMEM, 10% Fetal bovin serum Add-On: 1 µg/ml Doxycyclin 250nM Torin1
# [2] = system: U2OS; assay: as §1; details: Compound Concentration 1 uM, Culturing Media DMEM, 1 % Penicillin/Streptomycin, 10% Fetal bovin serum Add-On: blasticidin, Screening Media Control DMEM, 10% Fetal bovin serum Add-On: 1 µg/ml Doxycyclin, Screening Media Samples DMEM, 10% Fetal bovin serum Add-On: 1 µg/ml Doxycyclin 250nM Torin1; remark: listed apart in the source
# [3] = system: U2OS; assay: (§2) Here: values are normalized to the negative (DMSO; defined as 0% autophagy induction) and positive (250nM Torin1; mTOR inhibitor; defined as maximal inducer of autophagy = 100%) control compounds and represented as % of autophagy induction. […] The impact of autophagy induction on cells is complex and depends on the affected target. As such, the magnitude of a phenotype may not be equally mirrored in the %-value of autophagy induction and vice versa. The dynamics of the induction may indicate the mode of activation: e.g. activation via phosphorylation or a signaling cascade may occur fast, while activation via transcription factors may take considerably longer. […] Of note, treatment concentrations may be sub-optimal for specific compounds, leading to false negative annotations.; details: Culturing Media DMEM, 1 % Penicillin/Streptomycin, 10% Fetal bovin serum Add-On: No, Screening Media Control DMEM, Screening Media Samples DMEM
# [4] = system: TERT-RPE1; assay: as §2; details: Culturing Media DMEM/F12 (1:1), 1 % Penicillin/Streptomycin, 10% Fetal bovin serum Add-On: No, Screening Media Control DMEM/F12 (1:1), Screening Media Samples DMEM/F12 (1:1)
# [5] = system: U2OS; assay: as §2; details: Culturing Media DMEM, 1 % Penicillin/Streptomycin, 10% Fetal bovin serum Add-On: No, Screening Media Control DMEM, Screening Media Samples DMEM; remark: listed apart in the source
# [6] = Compound Concentration 0.5 uM, Timepoint 12 hours
# [7] = Compound Concentration 0.5 uM, Timepoint 24 hours
# [8] = Compound Concentration 0.5 uM, Timepoint 36 hours
# [9] = Compound Concentration 0.5 uM, Timepoint 60 hours
# [10] = Compound Concentration 2 uM, Timepoint 12 hours
# [11] = Compound Concentration 2 uM, Timepoint 24 hours
# [12] = Compound Concentration 2 uM, Timepoint 36 hours
# [13] = Compound Concentration 2 uM, Timepoint 60 hours
# [14] = Compound Concentration 10 uM, Timepoint 12 hours
# [15] = Compound Concentration 10 uM, Timepoint 24 hours
# [16] = Compound Concentration 10 uM, Timepoint 36 hours
# [17] = Compound Concentration 10 uM, Timepoint 60 hours
# [18] = Compound Concentration 0.5 uM, Timepoint 12 hours, 12 h, 0.5 µM
# [19] = Compound Concentration 0.5 uM, Timepoint 24 hours, 24 h, 0.5 µM
# [20] = Compound Concentration 0.5 uM, Timepoint 36 hours, 36 h, 0.5 µM
# [21] = Compound Concentration 0.5 uM, Timepoint 60 hours, 60 h, 0.5 µM
# [22] = Compound Concentration 2 uM, Timepoint 24 hours, 24 h, 2 µM
# [23] = Compound Concentration 2 uM, Timepoint 36 hours, 36 h, 2 µM
# [24] = Compound Concentration 2 uM, Timepoint 60 hours, 60 h, 2 µM
# [25] = Compound Concentration 10 uM, Timepoint 36 hours, 36 h, 10 µM
smiles,measurement,setting,value
O=C(O)c1ccc2c3c1cccc3c(=O)n1c3ccccc3nc21,ER-phagy suppression,[1]; Timepoint 12 hours,-11.121%
same,ER-phagy suppression,[1]; Timepoint 24 hours,-24.1866%
same,ER-phagy suppression,[1]; Timepoint 36 hours,-20.6591%
same,ER-phagy suppression,[1]; Timepoint 60 hours,-29.8702%
same,ER-phagy suppression,[2]; Timepoint 12 hours,-10.0258%
same,ER-phagy suppression,[2]; Timepoint 24 hours,-24.8466%
same,ER-phagy suppression,[2]; Timepoint 36 hours,-33.5835%
same,ER-phagy suppression,[2]; Timepoint 54 hours,-29.9152%
CN(C)C(=O)/C(C#N)=C/c1ccc(-c2nc3cnc4[nH]ccc4c3n2C2CCCCC2)o1,ER-phagy suppression,[1]; Timepoint 12 hours,-17.3558%
same,ER-phagy suppression,[1]; Timepoint 24 hours,-33.4897%
same,ER-phagy suppression,[1]; Timepoint 36 hours,-33.7439%
same,ER-phagy suppression,[1]; Timepoint 60 hours,-36.9146%
same,ER-phagy suppression,[2]; Timepoint 12 hours,-7.884%
same,ER-phagy suppression,[2]; Timepoint 24 hours,-25.0962%
same,ER-phagy suppression,[2]; Timepoint 36 hours,-37.4199%
same,ER-phagy suppression,[2]; Timepoint 54 hours,-35.162%
CCC(=O)N1CCN(c2ccc(-n3c(=O)ccc4cnc5ccc(-c6cnc7ccccc7c6)cc5c43)cc2C(F)(F)F)CC1 [TORIN1],ER-phagy suppression,[2]; Timepoint 12 hours,3.915%
same,ER-phagy suppression,[2]; Timepoint 24 hours,-7.7479%
same,ER-phagy suppression,[2]; Timepoint 36 hours,-6.712%
same,ER-phagy suppression,[2]; Timepoint 54 hours,-3.9465%
Cl.Cl.Nc1nccc(-c2c(-c3ccc(F)cc3)ncn2C2CCCCC2)n1,ER-phagy suppression,[2]; Timepoint 12 hours,12.007%
same,ER-phagy suppression,[2]; Timepoint 24 hours,14.1245%
same,ER-phagy suppression,[2]; Timepoint 36 hours,19.9643%
same,ER-phagy suppression,[2]; Timepoint 54 hours,25.2011%
Cl.Clc1ccc(CCCOCCCN2CCCCC2)cc1 [PITOLISANT HYDROCHLORIDE],autophagy induction,[3]; [6],13.8608%
same,autophagy induction,[3]; [7],9.201%
same,autophagy induction,[3]; [8],8.758%
same,autophagy induction,[3]; [9],0.1501%
same,autophagy induction,[3]; [10],-8.536%
same,autophagy induction,[3]; [11],-1.42%
same,autophagy induction,[3]; [12],-3.922%
same,autophagy induction,[3]; [13],-5.605%
same,autophagy induction,[3]; [14],1.329%
same,autophagy induction,[3]; [15],3.348%
same,autophagy induction,[3]; [16],1.993%
same,autophagy induction,[3]; [17],3.566%
same,autophagy induction,[4]; [18],-3.0454% and 2.896%
same,autophagy induction,[4]; [19],-1.513% and 3.003%
same,autophagy induction,[4]; [20],-3.944% and 2.632%
same,autophagy induction,[4]; [21],-4.171% and 0.01183%
same,autophagy induction,"[4]; Compound Concentration 2 uM, Timepoint 12 hours, 12 h, 2 µM",0.8347% and 2.672%
same,autophagy induction,[4]; [22],0.6662% and 3.448%
same,autophagy induction,[4]; [23],-1.283% and 2.753%
same,autophagy induction,[4]; [24],-3.185% and 1.301%
same,autophagy induction,[4]; [25],-0.5799% and 21.0375%
same,autophagy induction,[5]; [6],15.5533%
same,autophagy induction,[5]; [7],6.616%
same,autophagy induction,[5]; [8],-57.7817%
same,autophagy induction,[5]; [9],-0.2681%
same,autophagy induction,[5]; [10],-2.233%
same,autophagy induction,[5]; [11],-2.143%
same,autophagy induction,[5]; [12],-60.8013%
same,autophagy induction,[5]; [13],-1.476%
same,autophagy induction,[5]; [14],10.0351%
same,autophagy induction,[5]; [15],1.34%
same,autophagy induction,[5]; [16],-57.6898%
same,autophagy induction,[5]; [17],-1.026%
CCCCCCCCCCCCCCCCOC[C@H](COP(=O)([O-])OCC[N+](C)(C)C)OC(C)=O,autophagy induction,[3]; [6],1.863%
same,autophagy induction,[3]; [7],3.665%
same,autophagy induction,[3]; [8],-3.033%
same,autophagy induction,[3]; [9],-9.658%
same,autophagy induction,[3]; [10],2.298%
same,autophagy induction,[3]; [11],-2.882%
same,autophagy induction,[3]; [12],-2.921%
same,autophagy induction,[3]; [13],-2.8%
same,autophagy induction,[3]; [14],10.6263%
same,autophagy induction,[3]; [15],0.8651%
same,autophagy induction,[3]; [16],6.18%
same,autophagy induction,[3]; [17],5.674%
same,autophagy induction,[4]; [18],-0.9527% and 1.704%
same,autophagy induction,[4]; [19],-3.436% and -0.1454%
same,autophagy induction,[4]; [20],-3.259% and 2.221%
same,autophagy induction,[4]; [21],-5.529% and 3.615%
same,autophagy induction,[4]; [22],-0.2119% and 13.6511%
same,autophagy induction,[4]; [23],-1.573% and 9.518%
same,autophagy induction,[4]; [24],-2.541% and 14.6368%
same,autophagy induction,"[4]; Compound Concentration 10 uM, Timepoint 12 hours, 12 h, 10 µM",8.2187% and 7.039%
same,autophagy induction,"[4]; Compound Concentration 10 uM, Timepoint 24 hours, 24 h, 10 µM",4.065% and 6.451%
same,autophagy induction,[4]; [25],4.665% and 7.035%
same,autophagy induction,"[4]; Compound Concentration 10 uM, Timepoint 60 hours, 60 h, 10 µM",6.217% and 11.8263%
same,autophagy induction,[5]; [6],2.963%
same,autophagy induction,[5]; [7],0.1782%
same,autophagy induction,[5]; [8],2280.79%
same,autophagy induction,[5]; [9],-1.799%
same,autophagy induction,[5]; [10],-5.387%
same,autophagy induction,[5]; [11],-3.326%
same,autophagy induction,[5]; [12],2231.79%
same,autophagy induction,[5]; [13],-1.895%
same,autophagy induction,[5]; [14],-2.708%
same,autophagy induction,[5]; [15],-1.793%
same,autophagy induction,[5]; [16],678.152%
same,autophagy induction,[5]; [17],1.655%
